In ChEMBL document CHEMBL1201862, “PubChem BioAssay data set” (2004):
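Step 1: Grow cells in 96-well plates. Step 2: Expose to compound for 48 hours at 5 concentrations. Step 3: Interpolate endpoints linearly; if unreached, use highest concentration. At the GI50, growth is halved.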 The source made the active and inactive calls. Rule as the data show it: active = GI50 up to about 1.1 µM and inactive = higher.

Experiments:
Experiment in all cases: NCI tumour cell line growth inhibition, 48 h
[1] = test system: 786-0
[2] = test system: A498
[3] = test system: A549
[4] = test system: ACHN
[5] = test system: BT-549
[6] = test system: CAKI-1
[7] = test system: CCRF-CEM
[8] = test system: COLO 205
[9] = test system: DU-145
[10] = test system: EKVX
[11] = test system: HCC 2998
[12] = test system: HCT-116
[13] = test system: HCT-15
[14] = test system: HL-60
[15] = test system: HOP-62
[16] = test system: HOP-92
[17] = test system: HT-29
[18] = test system: Hs-578T
[19] = test system: IGROV-1
[20] = test system: K562
[21] = test system: KM12
[22] = test system: LOX IMVI
[23] = test system: M14
[24] = test system: MCF7
[25] = test system: MDA-MB-231
[26] = test system: MDA-MB-435
[27] = test system: MDA-N
[28] = test system: MOLT-4
[29] = test system: NCI-H226
[30] = test system: NCI-H23
[31] = test system: NCI-H460
[32] = test system: NCI-H522
[33] = test system: NCI/ADR-RES
[34] = test system: OVCAR-3
[35] = test system: OVCAR-4
[36] = test system: OVCAR-5
[37] = test system: OVCAR-8
[38] = test system: PC-3
[39] = test system: RPMI-8226
[40] = test system: SF-268
[41] = test system: SF-295
[42] = test system: SF-539
[43] = test system: SK-MEL-28
[44] = test system: SK-MEL-2
[45] = test system: SK-MEL-5
[46] = test system: SK-OV-3
[47] = test system: SN12C
[48] = test system: SNB-19
[49] = test system: SNB-75
[50] = test system: SR
[51] = test system: SW-620
[52] = test system: T47D
[53] = test system: TK-10
[54] = test system: U-251
[55] = test system: UACC-257
[56] = test system: UACC-62
[57] = test system: UO-31
[58] = test system: Malme-3M
[59] = test system: RXF 393

CC(C)(C)CC(N)=O
GI50 [1]: > 100 µM (inactive)
GI50 [2]: > 100 µM (inactive)
GI50 [3]: > 100 µM (inactive)
GI50 [4]: > 100 µM (inactive)
GI50 [5]: > 100 µM (inactive)
GI50 [6]: > 100 µM (inactive)
GI50 [7]: > 100 µM (inactive)
GI50 [8]: > 100 µM (inactive)
GI50 [9]: > 100 µM (inactive)
GI50 [10]: > 100 µM (inactive)
GI50 [11]: > 100 µM (inactive)
GI50 [12]: > 100 µM (inactive)
GI50 [13]: > 100 µM
GI50 [14]: > 100 µM (inactive)
GI50 [15]: > 100 µM (inactive)
GI50 [16]: > 100 µM (inactive)
GI50 [17]: > 100 µM (inactive)
GI50 [18]: > 100 µM (inactive)
GI50 [19]: > 100 µM (inactive)
GI50 [20]: > 100 µM (inactive)
GI50 [21]: > 100 µM (inactive)
GI50 [22]: > 100 µM (inactive)
GI50 [23]: > 100 µM (inactive)
GI50 [24]: > 100 µM (inactive)
GI50 [25]: > 100 µM (inactive)
GI50 [26]: > 100 µM (inactive)
GI50 [27]: > 100 µM (inactive)
GI50 [28]: > 10 µM (inactive)
GI50 [29]: > 100 µM (inactive)
GI50 [30]: > 100 µM (inactive)
GI50 [31]: > 100 µM (inactive)
GI50 [32]: > 100 µM (inactive)
GI50 [33]: > 100 µM (inactive)
GI50 [34]: > 100 µM (inactive)
GI50 [35]: > 100 µM (inactive)
GI50 [36]: > 100 µM (inactive)
GI50 [37]: > 100 µM (inactive)
GI50 [38]: > 100 µM (inactive)
GI50 [39]: > 10 µM (inactive)
GI50 [40]: > 100 µM (inactive)
GI50 [41]: > 100 µM (inactive)
GI50 [42]: > 100 µM (inactive)
GI50 [43]: > 100 µM (inactive)
GI50 [44]: > 100 µM (inactive)
GI50 [45]: > 100 µM (inactive)
GI50 [46]: > 100 µM (inactive)
GI50 [47]: > 100 µM (inactive)
GI50 [48]: > 100 µM (inactive)
GI50 [49]: > 100 µM (inactive)
GI50 [50]: > 100 µM (inactive)
GI50 [51]: > 100 µM (inactive)
GI50 [52]: > 100 µM (inactive)
GI50 [53]: > 100 µM (inactive)
GI50 [54]: > 100 µM (inactive)
GI50 [55]: > 100 µM (inactive)
GI50 [56]: > 100 µM (inactive)
GI50 [57]: > 100 µM (inactive)

C/C(=C/CC[C@]1(CO)CC[C@]2(C)[C@H](CC[C@@H]3[C@@]4(C)CC[C@H](OC5OC(CO)C(O)C(O)C5OC5OC(CO)C(O)C(O)C5O)C(C)(C)[C@@H]4CC[C@]32C)[C@H]1O)CO (stereo partly specified)
GI50 [1]: > 100 µM (inactive)
GI50 [2]: > 100 µM (inactive)
GI50 [3]: > 100 µM (inactive)
GI50 [4]: > 100 µM (inactive)
GI50 [5]: > 100 µM (inactive)
GI50 [6]: > 100 µM (inactive)
GI50 [7]: > 100 µM (inactive)
GI50 [8]: > 100 µM (inactive)
GI50 [9]: > 100 µM (inactive)
GI50 [10]: > 100 µM (inactive)
GI50 [12]: > 100 µM (inactive)
GI50 [13]: > 100 µM
GI50 [14]: > 100 µM (inactive)
GI50 [15]: > 100 µM (inactive)
GI50 [16]: > 100 µM (inactive)
GI50 [17]: > 100 µM (inactive)
GI50 [18]: > 100 µM (inactive)
GI50 [19]: > 100 µM (inactive)
GI50 [20]: > 100 µM (inactive)
GI50 [21]: > 100 µM (inactive)
GI50 [22]: > 100 µM (inactive)
GI50 [23]: > 100 µM (inactive)
GI50 [24]: > 100 µM (inactive)
GI50 [25]: > 100 µM (inactive)
GI50 [26]: > 100 µM (inactive)
GI50 [27]: > 100 µM (inactive)
GI50 [28]: > 100 µM (inactive)
GI50 [58]: > 100 µM (inactive)
GI50 [29]: > 100 µM (inactive)
GI50 [30]: > 100 µM (inactive)
GI50 [31]: > 100 µM (inactive)
GI50 [32]: > 100 µM (inactive)
GI50 [33]: > 100 µM (inactive)
GI50 [34]: > 100 µM (inactive)
GI50 [35]: > 100 µM (inactive)
GI50 [36]: > 100 µM (inactive)
GI50 [37]: > 100 µM (inactive)
GI50 [38]: > 100 µM (inactive)
GI50 [39]: > 100 µM (inactive)
GI50 [59]: > 100 µM (inactive)
GI50 [40]: > 100 µM (inactive)
GI50 [41]: > 100 µM (inactive)
GI50 [42]: > 100 µM (inactive)
GI50 [43]: > 100 µM (inactive)
GI50 [45]: > 100 µM (inactive)
GI50 [46]: > 100 µM (inactive)
GI50 [47]: > 100 µM (inactive)
GI50 [48]: > 100 µM (inactive)
GI50 [49]: > 100 µM (inactive)
GI50 [50]: > 100 µM (inactive)
GI50 [51]: > 100 µM (inactive)
GI50 [52]: > 100 µM (inactive)
GI50 [53]: > 100 µM (inactive)
GI50 [54]: > 100 µM (inactive)
GI50 [55]: > 100 µM (inactive)
GI50 [56]: > 100 µM (inactive)
GI50 [57]: > 100 µM (inactive)

Cc1nn(-c2ccccc2)c2c1C(c1cc3ccccc3nc1Cl)NC(=O)N2 (stereo unspecified)
GI50 [1]: 16.7 µM (inactive)
GI50 [2]: 21.5 µM (inactive)
GI50 [3]: 56.2 µM (inactive)
GI50 [4]: 17.7 µM (inactive)
GI50 [5]: 16.6 µM (inactive)
GI50 [6]: 34.4 µM (inactive)
GI50 [7]: 25.8 µM (inactive)
GI50 [8]: 19.5 µM (inactive)
GI50 [9]: 29.4 µM (inactive)
GI50 [10]: 25.9 µM (inactive)
GI50 [12]: 23.8 µM (inactive)
GI50 [13]: 19.8 µM
GI50 [14]: 5.81 µM (inactive)
GI50 [15]: 20.4 µM (inactive)
GI50 [16]: 10.8 µM (inactive)
GI50 [17]: 18.7 µM (inactive)
GI50 [18]: 27.5 µM (inactive)
GI50 [19]: 11 µM (inactive)
GI50 [20]: 2.94 µM (inactive)
GI50 [21]: 21.2 µM (inactive)
GI50 [22]: 19.4 µM (inactive)
GI50 [23]: 19.6 µM (inactive)
GI50 [24]: 25.3 µM (inactive)
GI50 [25]: 20.6 µM (inactive)
GI50 [26]: 23.9 µM (inactive)
GI50 [27]: 18.5 µM (inactive)
GI50 [28]: 2.64 µM (inactive)
GI50 [58]: 20.8 µM (inactive)
GI50 [29]: 19.1 µM (inactive)
GI50 [30]: 17.9 µM (inactive)
GI50 [31]: 30.8 µM (inactive)
GI50 [32]: 16.5 µM (inactive)
GI50 [33]: 28.4 µM (inactive)
GI50 [34]: 32.7 µM (inactive)
GI50 [35]: 34.1 µM (inactive)
GI50 [36]: 22.5 µM (inactive)
GI50 [37]: 19.3 µM (inactive)
GI50 [38]: 19.8 µM (inactive)
GI50 [39]: 23.9 µM (inactive)
GI50 [59]: 18.5 µM (inactive)
GI50 [40]: 27.4 µM (inactive)
GI50 [41]: 21.1 µM (inactive)
GI50 [42]: 19.9 µM (inactive)
GI50 [44]: 14.3 µM (inactive)
GI50 [45]: 17 µM (inactive)
GI50 [46]: 20.1 µM (inactive)
GI50 [47]: 24.4 µM (inactive)
GI50 [48]: 20.7 µM (inactive)
GI50 [49]: 18.9 µM (inactive)
GI50 [50]: 2.19 µM (inactive)
GI50 [51]: 17.7 µM (inactive)
GI50 [52]: 59.2 µM (inactive)
GI50 [53]: 28.2 µM (inactive)
GI50 [54]: 17.1 µM (inactive)
GI50 [55]: 27.7 µM (inactive)
GI50 [56]: 19 µM (inactive)
GI50 [57]: 14.3 µM (inactive)
